Data taken from patent US20090143279A1 (priority 2007, published 2009).
Read-outs that look alike come from different tables or passages of the source.

Experiments:
[1] = tested on: cellular dehydrogenase activity
[2] = tested on: C2C12 myotubes
[3] = tested on: nuOXPHOS transcripts; type: cell-based, mouse
[4] = tested on: cytochrome c; type: cell-based, mouse
[5] = tested on: reactive oxygen species; type: cell-based, mouse
[6] = tested on: mitochondrial membrane potential; type: cell-based, mouse
[7] = tested on: OXPHOS gene expression; type: cell-based, mouse
[8] = tested on: mtOXPHOS transcripts; type: cell-based, mouse
[9] = normalized composite Z-score vs mock-treated (DMSO) wells, Conc 20 μM
[10] = composite Z-score vs DMSO wells, Conc 20 μM
[11] = 20 μM, composite Z-score vs DMSO
[12] = composite Z-score vs mock-treated (DMSO) wells, Conc 20 μM
[13] = composite Z-score vs DMSO, Conc 20 μM
[14] = Table 7, C2C12 myotubes, 48 h, composite Z-score
[15] = composite Z-score vs mock-treated (DMSO) wells, concentration of each compound in μM

Chain of cytochrome c (P62897 whole entry): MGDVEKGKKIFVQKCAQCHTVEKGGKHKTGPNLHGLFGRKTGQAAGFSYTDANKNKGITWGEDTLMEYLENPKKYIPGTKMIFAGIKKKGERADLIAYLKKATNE

Compound `C=C1CC[C@@H]2[C@](C)(CO)[C@H](O)CC[C@@]2(C)[C@@H]1C/C=C1/C(=O)OC[C@H]1O` [andrographolide] has an MTT [1, 9] of −0.901, a Viability [2, 9] of −0.686 and a nucOX [3, 9] of −0.698. The cyt c [4, 9] was −0.044, the ROS [5, 9] was −1.813 and the ΔΨm [6, 9] was −0.165. The GE-HTS [7, 9] was −1.323 and the mitoOX [8, 9] was −2.361.

Work on `CC(=O)C=CC1C(C)(O)CCC2C(C)(C)CCCC21C` (stereo not drawn) [8-hydroxy-15,16-bisnor-11-labden-13-one] yielded an MTT [1, 9] of −0.248, a Viability [2, 9] of −1.702 and a nucOX [3, 9] of −0.078. The cyt c [4, 9] was 0.550, the ROS [5, 9] was 0.504 and the ΔΨm [6, 9] was 0.798. For the same compound, the GE-HTS [7, 9] was −0.554 and the mitoOX [8, 9] was −1.430.

With estrone hemisuccinate the MTT [1, 10] was −0.686, the Viability [2, 10] was −0.076 and the nucOX [3, 10] was 0.370. It also gave a cyt c [4, 10] of 0.250, an ROS [5, 10] of 0.834 and a ΔΨm [6, 10] of −0.573. For the same compound, the GE-HTS [7, 10] was 0.261 and the mitoOX [8, 10] was −0.003.

polymyxin b sulfate was tested, and the MTT [1, 11] was −0.522, the Viability [2, 11] was 0.819 and the nucOX [3, 11] was −0.349. It also gave a cyt c [4, 11] of −0.323, an ROS [5, 11] of 0.342 and a ΔΨm [6, 11] of 0.738. For the same compound, the GE-HTS [7, 11] was −0.382 and the mitoOX [8, 11] was −0.341.

For `COc1ccc2c(c1)O[C@@H]1COc3cc(OC)c(OC)cc3[C@@H]1C2=O` [mundoserone, reference compound], the MTT [1, 12] was −1.681, the Viability [2, 12] was −0.425 and the nucOX [3, 12] was −0.643. The cyt c [4, 12] was 0.418, the ROS [5, 12] was −0.608 and the ΔΨm [6, 12] was 0.837. For the same compound, the GE-HTS [7, 12] was −0.606 and the mitoOX [8, 12] was −0.452.

In the case of `NC(=O)c1cc([N+](=O)[O-])cc([N+](=O)[O-])c1` [nitromide], the MTT [1, 11] is reported as −1.071, the Viability [2, 11] is reported as −0.259 and the nucOX [3, 11] is reported as −0.100. The cyt c [4, 11] was −0.346, the ROS [5, 11] was 1.299 and the ΔΨm [6, 11] was 1.648. The GE-HTS [7, 11] was −0.128 and the mitoOX [8, 11] was −0.086.

With `O[C@H]1[C@H](O)[C@@H](O)C2OC[C@H]1O2` [anhydroglucose] the MTT [1, 13] was 0.041, the Viability [2, 13] was 0.168 and the nucOX [3, 13] was 0.322. The cyt c [4, 13] was 0.688, the ROS [5, 13] was 0.238 and the ΔΨm [6, 13] was −0.480. It also gave a GE-HTS [7, 13] of −0.046 and a mitoOX [8, 13] of −0.745.

In the case of `CCN1CCN(C(=O)N[C@@H](C(=O)N[C@@H]2C(=O)N3[C@@H]2SC(C)(C)[C@@H]3C(=O)O)c2ccccc2)C(=O)C1=O` [piperacillin], the MTT [1, 13] is reported as −1.188, the Viability [2, 13] is reported as −0.990 and the nucOX [3, 13] is reported as −0.339. The cyt c [4, 13] was 0.544, the ROS [5, 13] was 0.645 and the ΔΨm [6, 13] was −0.150. It also gave a GE-HTS [7, 13] of −0.548 and a mitoOX [8, 13] of −0.857.

With `COc1cccc2c1CCC1CC(=O)CCC21C` (stereo not drawn) the MTT [1, 9] was −1.068, the Viability [2, 9] was −0.060 and the nucOX [3, 9] was −0.900. It also gave a cyt c [4, 9] of 1.307, an ROS [5, 9] of −0.109 and a ΔΨm [6, 9] of 1.124. It also gave a GE-HTS [7, 9] of −0.872 and a mitoOX [8, 9] of −0.612.

In the case of `C[N+]12CCC(CC1)C(OC(=O)C(O)(c1ccccc1)c1ccccc1)C2` (stereo not drawn) [clidinium], the MTT [1] is reported as −2.250, the MTT [1, 11] is reported as −1.393 and the Viability [2] is reported as 0.172. It also gave a Viability [2, 11] of −0.084, a nucOX [3] of −0.202 and a nucOX [3, 11] of −0.503. For the same compound, the cyt c [4] was 0.176, the cyt c [4, 11] was −0.062 and the ROS [5] was 1.870. For the same compound, the ROS [5, 11] was 1.625, the ΔΨm [6] was −0.715 and the ΔΨm [6, 11] was −0.772. The GE-HTS [7] was −0.462, the GE-HTS [7, 11] was −0.556 and the mitoOX [8] was −0.903. The mitoOX [8, 11] was −0.602.

With `COc1cccc2c1C(=O)c1c(O)c3c(c(O)c1C2=O)C[C@@](O)(C(C)=O)C[C@@H]3O[C@H]1C[C@H](N)[C@H](O)[C@H](C)O1` [Daunorubicin, reference compound] the MTT [1] was −5.009, the Viability [2] was −3.547 and the nucOX [3] was −2.094. For the same compound, the “nucOXPHOS Z” value [3, 14] was −2.09, the cyt c [4] was −3.722 and the ROS [5] was −2.398. The ΔΨm [6] was −2.337, the GE-HTS [7] was −1.008 and the mitoOX [8] was 1.373. The “mito-OXPHOS Z” value [8, 14] was 1.37.

`CC(=O)Oc1c(C)c(C)c2c(c1C)CCC(C)(CCCC(C)CCCC(C)CCCC(C)C)O2` (stereo not drawn) [alpha-tochopheryl acetate] gave an MTT [1, 11] of −1.398, a Viability [2, 11] of −0.957 and a nucOX [3, 11] of 0.339. For the same compound, the cyt c [4, 11] was 0.261, the ROS [5, 11] was 0.364 and the ΔΨm [6, 11] was −0.734. The GE-HTS [7, 11] was 0.212 and the mitoOX [8, 11] was −0.094.

For `CC(=O)O.CSC(=N)NCCC[C@H](N)C(=O)O` [S-methyl-L-thiocitrulline acetate], the MTT [1, 15] was −0.262, the Viability [2, 15] was 0.613 and the nucOX [3, 15] was 0.325. For the same compound, the cyt c [4, 15] was 0.533, the ROS [5, 15] was 0.052 and the ΔΨm [6, 15] was −0.542. The GE-HTS [7, 15] was 0.291 and the mitoOX [8, 15] was 0.173.
